Results taken from ChEMBL document CHEMBL3885861, “Open TG-GATES”.

Species: Rattus norvegicus
Test: Open TG-GATES - Regimen: Single
Format: toxicity, organism-based, Sprague-Dawley
Design: regimen Single, gender Male, age 6 weeks
Conditions: in vivo, po, 30 mg/kg, route gavage, dose level Low; for APTT / Bas / Eos / Fbg / Hb / Ht / Lym / MCH / MCHC / MCV / Mono / Neu / PT / Plat / RBC / Ret / WBC: tissue Blood; for KIDNEY_L / KIDNEY_R / KIDNEY_TOTAL: tissue Kidney; for LIVER: tissue Liver; for A/G / ALP / ALT / AST / BUN / CRE / Ca / Cl / DBIL / GLC / IP / K / LDH / Na / PL / RALB / TBIL / TC / TG / TP / gamma-GTP: tissue Plasma

ClC(Cl)(Cl)Cl [CARBON TETRACHLORIDE]
TERMINAL_BW (3 h): 206.6 g
APTT (3 h): 16.5 s
Bas (3 h): 0%
Eos (3 h): 0.8%
Fbg (3 h): 259.6 mg/dL
Hb (3 h): 13 g/dL
Ht (3 h): 37.5%
Lym (3 h): 76.6%
MCH (3 h): 21.2 pg
MCHC (3 h): 34.6%
MCV (3 h): 61.4 fL
Mono (3 h): 3.4%
Neu (3 h): 19%
PT (3 h): 12.3 s
Plat (3 h): 127.9 x10_4/uL
RBC (3 h): 610.8 x10_4/ul
Ret (3 h): 8.6%
WBC (3 h): 95.4 x10_2/uL
KIDNEY_L (3 h): 0.9 g
KIDNEY_R (3 h): 0.9 g
KIDNEY_TOTAL (3 h): 1.9 g
LIVER (3 h): 9.7 g
A/G (3 h): 1.6
ALP (3 h): 1090.2 IU/L
ALT (3 h): 39.6 IU/L
AST (3 h): 67.4 IU/L
BUN (3 h): 11.8 mg/dL
CRE (3 h): 0.4 mg/dL
Ca (3 h): 10.9 mg/dL
Cl (3 h): 104 meq/L
DBIL (3 h): 0.1 mg/dL
GLC (3 h): 192.6 mg/dL
IP (3 h): 9.8 mg/dL
K (3 h): 3.8 meq/L
LDH (3 h): 198.8 IU/L
Na (3 h): 140.2 meq/L
PL (3 h): 169.2 mg/dL
RALB (3 h): 3.4 g/dL
TBIL (3 h): 0.2 mg/dL
TC (3 h): 86 mg/dL
TG (3 h): 81.2 mg/dL
TP (3 h): 5.6 g/dL
gamma-GTP (3 h): 1.4 IU/L
TERMINAL_BW (6 h): 205.6 g
APTT (6 h): 17.9 s
Bas (6 h): 0%
Eos (6 h): 1%
Fbg (6 h): 242 mg/dL
Hb (6 h): 13.1 g/dL
Ht (6 h): 37.4%
Lym (6 h): 72.8%
MCH (6 h): 22 pg
MCHC (6 h): 34.9%
MCV (6 h): 63.1 fL
Mono (6 h): 2.6%
Neu (6 h): 22.8%
PT (6 h): 12.7 s
Plat (6 h): 134.6 x10_4/uL
RBC (6 h): 593.6 x10_4/ul
Ret (6 h): 8.6%
WBC (6 h): 78.1 x10_2/uL
KIDNEY_L (6 h): 0.9 g
KIDNEY_R (6 h): 0.9 g
KIDNEY_TOTAL (6 h): 1.8 g
LIVER (6 h): 9.4 g
A/G (6 h): 1.7
ALP (6 h): 1051 IU/L
ALT (6 h): 29.4 IU/L
AST (6 h): 63.8 IU/L
BUN (6 h): 10.2 mg/dL
CRE (6 h): 0.4 mg/dL
Ca (6 h): 10.6 mg/dL
Cl (6 h): 104.4 meq/L
DBIL (6 h): 0.1 mg/dL
GLC (6 h): 195 mg/dL
IP (6 h): 9.4 mg/dL
K (6 h): 4.1 meq/L
LDH (6 h): 221.2 IU/L
Na (6 h): 139.6 meq/L
PL (6 h): 159 mg/dL
RALB (6 h): 3.5 g/dL
TBIL (6 h): 0.2 mg/dL
TC (6 h): 79 mg/dL
TG (6 h): 91.2 mg/dL
TP (6 h): 5.6 g/dL
gamma-GTP (6 h): 1 IU/L
TERMINAL_BW (9 h): 201.5 g
APTT (9 h): 17.2 s
Bas (9 h): 0%
Eos (9 h): 0.8%
Fbg (9 h): 229.4 mg/dL
Hb (9 h): 12.7 g/dL
Ht (9 h): 36.5%
Lym (9 h): 74%
MCH (9 h): 21.4 pg
MCHC (9 h): 34.8%
MCV (9 h): 61.6 fL
Mono (9 h): 2.2%
Neu (9 h): 22.6%
PT (9 h): 12.5 s
Plat (9 h): 126.6 x10_4/uL
RBC (9 h): 593.2 x10_4/ul
Ret (9 h): 9.1%
WBC (9 h): 76.5 x10_2/uL
KIDNEY_L (9 h): 0.9 g
KIDNEY_R (9 h): 0.9 g
KIDNEY_TOTAL (9 h): 1.8 g
LIVER (9 h): 8.6 g
A/G (9 h): 1.6
ALP (9 h): 1042.2 IU/L
ALT (9 h): 29.8 IU/L
AST (9 h): 58 IU/L
BUN (9 h): 10 mg/dL
CRE (9 h): 0.4 mg/dL
Ca (9 h): 10.4 mg/dL
Cl (9 h): 103.8 meq/L
DBIL (9 h): 0.09 mg/dL
GLC (9 h): 196.8 mg/dL
IP (9 h): 10.6 mg/dL
K (9 h): 3.6 meq/L
LDH (9 h): 174 IU/L
Na (9 h): 140.2 meq/L
PL (9 h): 150.8 mg/dL
RALB (9 h): 3.3 g/dL
TBIL (9 h): 0.2 mg/dL
TC (9 h): 75.8 mg/dL
TG (9 h): 57.2 mg/dL
TP (9 h): 5.4 g/dL
gamma-GTP (9 h): 0.8 IU/L
TERMINAL_BW (24 h): 211.3 g
APTT (24 h): 19.1 s
Bas (24 h): 0%
Eos (24 h): 0.8%
Fbg (24 h): 229.6 mg/dL
Hb (24 h): 13.6 g/dL
Ht (24 h): 38.8%
Lym (24 h): 84.4%
MCH (24 h): 22.4 pg
MCHC (24 h): 35%
MCV (24 h): 64 fL
Mono (24 h): 2.6%
Neu (24 h): 11.6%
PT (24 h): 12.1 s
Plat (24 h): 132.2 x10_4/uL
RBC (24 h): 606.4 x10_4/ul
Ret (24 h): 8%
WBC (24 h): 101.3 x10_2/uL
KIDNEY_L (24 h): 1 g
KIDNEY_R (24 h): 1 g
KIDNEY_TOTAL (24 h): 2 g
LIVER (24 h): 10.4 g
A/G (24 h): 1.6
ALP (24 h): 1115.2 IU/L
ALT (24 h): 42.4 IU/L
AST (24 h): 69.6 IU/L
BUN (24 h): 14.8 mg/dL
CRE (24 h): 0.4 mg/dL
Ca (24 h): 10.7 mg/dL
Cl (24 h): 103.8 meq/L
DBIL (24 h): 0.07 mg/dL
GLC (24 h): 202 mg/dL
IP (24 h): 7.7 mg/dL
K (24 h): 3.8 meq/L
LDH (24 h): 188.8 IU/L
Na (24 h): 140.6 meq/L
PL (24 h): 155.2 mg/dL
RALB (24 h): 3.5 g/dL
TBIL (24 h): 0.1 mg/dL
TC (24 h): 81.2 mg/dL
TG (24 h): 61.8 mg/dL
TP (24 h): 5.7 g/dL
gamma-GTP (24 h): 1.4 IU/L
